In assay [1] the target is Mothers against decapentaplegic homolog 3 (Homo sapiens, UniProt P84022). In words: Smad3 binding inhibitors, lysate ELISA, dose response, cell lysate, secondary confirmation, chemiluminescent ELISA, HEK293 lysate (AID 1058). The format is functional. A general note: ELISA stands for enzyme-linked immunosorbent assay.
Assay [2] is described as follows: HEp-2 cell cytotoxicity, dose response, cytotoxicity control for RSV inhibitor project, HTS (AID 2410). To be noted: human respiratory syncytial virus. The format is functional.
For assay [3], the system named is BJ. In words: cytotoxicity toward BJ-TERT fibroblasts, dose response, cell-based, RAS-independent, luminescence (AID 1933). The assay is classed as functional. To be noted: Homo sapiens.
In assay [4] the target is T1, SUMO-activating enzyme (Homo sapiens, UniProt Q9UBT2). The experiment in a line: SUMOylation inhibitor hit validation, confirmation, SUMOylation inhibitor project, biochemical, AlphaScreen (AID 2018). The assay is classed as functional. (In general: In Alpha technology, singlet oxygen from a donor bead excites a nearby acceptor bead.)
For a further assay, the target named is Galanin receptor type 2 (Homo sapiens, UniProt O43603). The experiment in a line: Dose Response cell-based high-throughput screening assay to identify agonists of galanin receptor 2 (GALR2). [Related pubchem assays: 864 ]. The assay is classed as functional.
Assay [5] has as its system BJ. In words: cells. The format is functional, cell-based. To be noted: Homo sapiens.
Assay [6] can be described thus: cytotoxicity toward DRD oncogenic fibroblasts, dose response, cell-based, non-viral oncogenic, luminescence (AID 1934). To be noted: Homo sapiens. The format is functional.
Assay [7] addresses T1, SUMO-activating enzyme. In words: inhibitors of in vitro SUMOylation cascade, primary screen, biochemical, HTRF, uHTS (AID 2006). The format is protein-complex assay. (TR-FRET usually uses a lanthanide donor and a delayed reading to cut background.)
For assay [8], the system named is BJ. The experiment in a line: cytotoxicity toward BJ-TERT-LT-ST fibroblasts, dose response, cell-based, RAS-independent, luminescence (AID 1935).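 Note: BJ fibroblasts immortalized with TERT plus LT and ST oncogenes.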 Particulars: Homo sapiens. The assay is classed as functional.
The test system of another assay is Vero. The experiment in a line: Vero cell cytotoxicity, cytotoxicity control for flavivirus capping enzyme inhibitors (AID 588742). The format is functional. Particulars: Chlorocebus sabaeus.
For assay [9], the target named is Neuropeptide Y receptor type 2 (Homo sapiens, UniProt P49146). In words: Fluorescence-based cell-based high-throughput dose response assay for agonists of NPY-Y2. [Related pubchem assays: 1703 (Screening assay (CNGC inhibitors).), 1359 (Screening assay (NPY-Y2 potentiators or agonists).), 1304 (Screening assay (NPY-Y1 potentiators or agonists).), 1710 (Screening assay (NPY-Y2 agonists).), 1791 (Summary AID.)]. The assay is classed as functional.

Another assay deals with HEK293. In words: Fluorescence-based counterscreen for potentiators or agonists of NPY-Y2: cell-based high-throughput dose response assay to identify inhibitors of cyclic nucleotide gated ion channel (CNGC) activity. In this assay, the parental HEK293 cell line transfected with a cyclic-nucleotide gated ion channel (CNGC)-based cAMP sensor is used to measure inhibition of isoproterenol-induced CNGC activity by test compound. To be noted: Homo sapiens. The assay is classed as functional.

The target in assay [10] is Neuropeptide Y receptor type 1 (Homo sapiens, UniProt P25929). The experiment in a line: Fluorescence-based counterscreen for agonists of NPY-Y2: cell-based high-throughput dose response assay for agonists of NPY-Y1. The assay is classed as functional.
Assay [11] has as its target T2, Bcl-2-related protein A1 (Mus musculus, UniProt Q07440).
T2 sequence (Q07440 whole entry): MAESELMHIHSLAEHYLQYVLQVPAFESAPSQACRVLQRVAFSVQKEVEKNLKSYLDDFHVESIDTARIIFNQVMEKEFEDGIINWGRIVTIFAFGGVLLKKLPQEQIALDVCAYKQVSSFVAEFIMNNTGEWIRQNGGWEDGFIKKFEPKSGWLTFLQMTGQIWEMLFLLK
The experiment in a line: Bfl-1 binding inhibitors, SAR follow-up, biochemical, fluorescence polarization (AID 1070).

Assay [12] deals with T2, Bcl-2-related protein A1. In words: Bfl-1 inhibitors blocking BH3 peptide binding, confirmation, biochemical, TR-FRET, mouse Bfl-1 (AID 621).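 Note: TR-FRET binding of GST-Bfl-1 to FITC-labelled Bid peptide via terbium antibody.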
The next assay addresses Vasopressin V1a receptor (Homo sapiens, UniProt P37288). The experiment in a line: Counterscreen for Oxytocin Receptor (OXTR) agonists: Fluorescence-based cell-based high throughput dose response assay to identify agonists of the vasopressin 1 receptor (V1R). [Related pubchem assays: 2435 (Primary screen (OXTR agonists in singlicate)), 434991 (Counterscreen (V1R agonists in triplicate)), 2482 (Summary (OXTR agonists)) …. The format is functional.

For a further assay, the target named is Oxytocin receptor (Homo sapiens, UniProt P30559). The experiment in a line: Fluorescence-based cell-based high throughput dose response assay for agonists of the Oxytocin Receptor (OXTR). [Related pubchem assays: 2435 (Primary screen (OXTR agonists in singlicate)), 434991 (Counterscreen (V1R agonists in triplicate)), 2482 (Summary (OXTR agonists)), 434963 (Confirmation screen (OXTR agonists in triplicate))]. The assay is classed as functional.

The target of assay [13] is T3, Fatty acid synthase (Homo sapiens, UniProt P49327). In words: FAS thioesterase domain inhibitors, dose response, biochemical, endpoint fluorescence intensity, uHTS hits (AID 624327).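 Note: fluorescence from hydrolysis of an O-methyl fluorescein acyl ester substrate by the enzyme.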 The assay is classed as functional.
A short description of assay [14]: microbe, parasite or virus in culture. Particulars: Mycobacterium tuberculosis. The format is functional.
Assay [15] in a line: A High Throughput Confirmatory Assay used to Identify Novel Compounds that Inhibit Mycobacterium Tuberculosis in the absence of Glycerol. The assay is classed as functional.
In assay [16] the target is T3, Fatty acid synthase. The experiment in a line: FAS thioesterase domain inhibitors, dose response, biochemical, kinetic fluorescence intensity (AID 624326).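 Note: rate of fluorescence rise from hydrolysis of a fluorogenic O-methyl fluorescein ester substrate.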 The format is functional.

Activity calls are given as the source filed them.

T1 sequence (Q9UBE0 whole entry): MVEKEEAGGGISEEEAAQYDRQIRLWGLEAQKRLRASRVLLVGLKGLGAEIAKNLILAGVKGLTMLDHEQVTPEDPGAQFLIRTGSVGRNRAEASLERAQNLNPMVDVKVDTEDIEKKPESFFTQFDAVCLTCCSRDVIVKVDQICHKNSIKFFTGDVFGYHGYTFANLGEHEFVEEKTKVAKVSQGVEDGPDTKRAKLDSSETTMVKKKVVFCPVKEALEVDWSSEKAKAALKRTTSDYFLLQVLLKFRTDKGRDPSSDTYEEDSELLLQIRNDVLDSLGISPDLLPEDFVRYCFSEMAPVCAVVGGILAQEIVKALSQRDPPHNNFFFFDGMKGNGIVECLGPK
T1 sequence (Q9UBT2 whole entry): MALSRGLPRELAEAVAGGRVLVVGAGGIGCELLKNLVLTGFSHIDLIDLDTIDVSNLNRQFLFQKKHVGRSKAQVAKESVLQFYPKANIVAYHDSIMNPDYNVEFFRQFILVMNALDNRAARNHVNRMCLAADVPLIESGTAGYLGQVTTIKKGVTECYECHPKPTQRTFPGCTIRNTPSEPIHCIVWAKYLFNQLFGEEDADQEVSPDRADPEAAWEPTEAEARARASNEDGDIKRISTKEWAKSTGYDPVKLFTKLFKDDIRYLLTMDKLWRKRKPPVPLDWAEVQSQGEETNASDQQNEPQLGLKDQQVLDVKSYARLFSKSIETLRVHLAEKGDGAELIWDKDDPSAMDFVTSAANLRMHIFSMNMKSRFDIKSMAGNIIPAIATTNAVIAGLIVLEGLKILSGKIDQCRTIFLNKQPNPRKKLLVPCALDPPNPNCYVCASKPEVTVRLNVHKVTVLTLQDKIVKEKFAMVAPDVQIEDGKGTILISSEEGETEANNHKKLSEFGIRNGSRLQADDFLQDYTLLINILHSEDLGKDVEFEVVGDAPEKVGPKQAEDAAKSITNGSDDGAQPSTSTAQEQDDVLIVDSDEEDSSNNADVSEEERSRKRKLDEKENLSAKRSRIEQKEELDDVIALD
T3 sequence (P49327 whole entry, the tested form may be a part): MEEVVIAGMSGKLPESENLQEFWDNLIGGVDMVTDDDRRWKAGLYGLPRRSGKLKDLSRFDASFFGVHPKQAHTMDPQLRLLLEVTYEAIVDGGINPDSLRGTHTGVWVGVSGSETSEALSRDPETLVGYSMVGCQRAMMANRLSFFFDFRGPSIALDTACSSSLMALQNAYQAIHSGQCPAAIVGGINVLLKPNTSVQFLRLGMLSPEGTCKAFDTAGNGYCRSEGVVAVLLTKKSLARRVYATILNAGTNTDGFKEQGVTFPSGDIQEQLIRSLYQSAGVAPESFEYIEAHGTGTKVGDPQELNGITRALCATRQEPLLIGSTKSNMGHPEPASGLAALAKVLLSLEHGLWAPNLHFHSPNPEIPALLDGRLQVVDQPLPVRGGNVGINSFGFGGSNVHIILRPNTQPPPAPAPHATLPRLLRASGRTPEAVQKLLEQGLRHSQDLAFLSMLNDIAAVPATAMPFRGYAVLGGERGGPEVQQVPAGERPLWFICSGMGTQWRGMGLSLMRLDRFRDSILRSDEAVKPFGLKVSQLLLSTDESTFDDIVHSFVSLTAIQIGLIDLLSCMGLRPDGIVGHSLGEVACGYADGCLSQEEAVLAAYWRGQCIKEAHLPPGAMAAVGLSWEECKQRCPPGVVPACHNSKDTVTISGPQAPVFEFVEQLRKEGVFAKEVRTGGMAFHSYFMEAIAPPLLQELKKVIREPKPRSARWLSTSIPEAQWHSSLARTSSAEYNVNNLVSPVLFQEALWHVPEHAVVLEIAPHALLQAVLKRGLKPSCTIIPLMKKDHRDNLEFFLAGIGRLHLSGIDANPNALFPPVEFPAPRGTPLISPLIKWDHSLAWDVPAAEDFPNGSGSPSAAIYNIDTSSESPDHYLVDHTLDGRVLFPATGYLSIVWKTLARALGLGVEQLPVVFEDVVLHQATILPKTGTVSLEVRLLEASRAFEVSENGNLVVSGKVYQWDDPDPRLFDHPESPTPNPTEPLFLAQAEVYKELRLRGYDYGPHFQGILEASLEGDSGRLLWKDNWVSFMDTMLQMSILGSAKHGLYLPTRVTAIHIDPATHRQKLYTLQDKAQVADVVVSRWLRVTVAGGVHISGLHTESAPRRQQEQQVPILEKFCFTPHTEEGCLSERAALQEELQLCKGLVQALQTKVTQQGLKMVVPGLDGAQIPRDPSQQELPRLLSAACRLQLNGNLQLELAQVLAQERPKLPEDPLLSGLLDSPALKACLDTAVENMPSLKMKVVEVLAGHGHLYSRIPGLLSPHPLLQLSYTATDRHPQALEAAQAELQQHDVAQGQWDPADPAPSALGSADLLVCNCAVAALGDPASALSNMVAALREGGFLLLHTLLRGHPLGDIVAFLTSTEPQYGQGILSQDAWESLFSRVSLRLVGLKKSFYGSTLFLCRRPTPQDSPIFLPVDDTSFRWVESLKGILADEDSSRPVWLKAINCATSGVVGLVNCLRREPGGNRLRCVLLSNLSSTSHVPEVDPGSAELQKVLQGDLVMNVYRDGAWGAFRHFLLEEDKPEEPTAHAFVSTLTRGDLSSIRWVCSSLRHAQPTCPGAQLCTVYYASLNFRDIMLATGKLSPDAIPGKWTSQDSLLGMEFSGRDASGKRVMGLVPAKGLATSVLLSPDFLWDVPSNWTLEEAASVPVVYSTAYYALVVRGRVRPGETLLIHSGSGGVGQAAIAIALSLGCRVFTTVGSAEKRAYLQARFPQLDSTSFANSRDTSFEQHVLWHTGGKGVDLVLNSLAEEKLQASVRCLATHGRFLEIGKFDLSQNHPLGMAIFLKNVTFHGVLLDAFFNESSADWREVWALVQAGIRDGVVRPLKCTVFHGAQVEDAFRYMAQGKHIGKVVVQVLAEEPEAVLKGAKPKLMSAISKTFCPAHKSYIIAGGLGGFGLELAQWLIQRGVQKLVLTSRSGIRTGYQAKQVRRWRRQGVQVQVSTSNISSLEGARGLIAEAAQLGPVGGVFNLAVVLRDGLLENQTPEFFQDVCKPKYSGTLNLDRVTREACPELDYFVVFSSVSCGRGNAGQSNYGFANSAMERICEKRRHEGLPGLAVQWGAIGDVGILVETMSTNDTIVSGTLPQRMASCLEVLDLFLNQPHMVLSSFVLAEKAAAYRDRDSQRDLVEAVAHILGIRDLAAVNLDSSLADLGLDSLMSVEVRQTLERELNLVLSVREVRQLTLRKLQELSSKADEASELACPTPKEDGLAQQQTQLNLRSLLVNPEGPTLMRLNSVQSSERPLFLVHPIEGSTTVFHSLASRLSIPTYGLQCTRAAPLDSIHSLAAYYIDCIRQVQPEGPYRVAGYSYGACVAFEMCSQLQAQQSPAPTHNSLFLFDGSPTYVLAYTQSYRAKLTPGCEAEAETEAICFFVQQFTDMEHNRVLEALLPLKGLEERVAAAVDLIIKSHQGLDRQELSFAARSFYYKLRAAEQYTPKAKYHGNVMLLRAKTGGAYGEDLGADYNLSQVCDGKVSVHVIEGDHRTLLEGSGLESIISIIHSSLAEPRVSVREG
Sequence of Galanin receptor type 2 (O43603 whole entry): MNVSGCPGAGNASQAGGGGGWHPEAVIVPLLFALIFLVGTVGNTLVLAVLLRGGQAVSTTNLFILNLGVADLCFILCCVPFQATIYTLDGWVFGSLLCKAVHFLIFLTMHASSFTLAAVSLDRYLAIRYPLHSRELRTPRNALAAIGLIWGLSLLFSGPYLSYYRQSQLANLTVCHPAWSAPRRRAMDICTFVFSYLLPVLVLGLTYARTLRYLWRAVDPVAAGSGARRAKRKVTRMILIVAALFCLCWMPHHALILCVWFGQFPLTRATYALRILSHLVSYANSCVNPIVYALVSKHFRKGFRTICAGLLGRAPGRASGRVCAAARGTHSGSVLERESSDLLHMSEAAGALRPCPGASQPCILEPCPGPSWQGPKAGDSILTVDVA
Sequence of Oxytocin receptor (P30559 whole entry): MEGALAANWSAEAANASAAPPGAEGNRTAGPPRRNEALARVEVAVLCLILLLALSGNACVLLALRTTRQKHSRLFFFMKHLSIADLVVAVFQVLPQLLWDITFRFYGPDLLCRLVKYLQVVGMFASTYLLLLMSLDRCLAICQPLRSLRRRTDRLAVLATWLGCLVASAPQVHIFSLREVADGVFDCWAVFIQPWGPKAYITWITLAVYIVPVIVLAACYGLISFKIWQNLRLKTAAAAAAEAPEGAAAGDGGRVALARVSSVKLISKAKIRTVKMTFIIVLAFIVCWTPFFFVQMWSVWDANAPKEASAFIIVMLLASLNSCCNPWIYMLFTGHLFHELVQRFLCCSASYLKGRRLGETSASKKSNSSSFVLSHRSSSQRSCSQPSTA
Sequence of Neuropeptide Y receptor type 2 (P49146 whole entry): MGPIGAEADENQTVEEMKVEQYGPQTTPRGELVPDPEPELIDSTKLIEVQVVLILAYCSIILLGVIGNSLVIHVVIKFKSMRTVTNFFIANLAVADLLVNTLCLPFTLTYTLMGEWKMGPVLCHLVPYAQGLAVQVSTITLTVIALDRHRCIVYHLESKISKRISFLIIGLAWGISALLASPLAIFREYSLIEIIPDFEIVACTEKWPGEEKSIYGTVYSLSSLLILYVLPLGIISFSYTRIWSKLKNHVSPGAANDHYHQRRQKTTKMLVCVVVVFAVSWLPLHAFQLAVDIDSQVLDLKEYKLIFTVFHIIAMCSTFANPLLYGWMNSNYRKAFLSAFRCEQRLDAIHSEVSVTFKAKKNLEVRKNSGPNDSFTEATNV
Sequence of Vasopressin V1a receptor (P37288 whole entry): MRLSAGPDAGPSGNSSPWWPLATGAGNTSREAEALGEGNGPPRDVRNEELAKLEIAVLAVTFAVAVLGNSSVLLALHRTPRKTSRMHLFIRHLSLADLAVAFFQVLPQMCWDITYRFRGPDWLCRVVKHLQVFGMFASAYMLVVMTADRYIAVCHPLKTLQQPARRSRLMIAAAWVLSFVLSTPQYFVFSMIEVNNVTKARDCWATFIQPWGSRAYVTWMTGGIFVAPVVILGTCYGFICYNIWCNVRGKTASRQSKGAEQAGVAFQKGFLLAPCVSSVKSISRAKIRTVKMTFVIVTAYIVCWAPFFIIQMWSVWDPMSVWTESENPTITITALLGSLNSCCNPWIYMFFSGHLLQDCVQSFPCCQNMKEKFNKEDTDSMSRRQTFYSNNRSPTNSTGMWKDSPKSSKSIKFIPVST

A word on the IC50: it is the concentration needed to halve the response being measured. Consider `COc1ccc(C(c2cc3c(cc2O)OCO3)N2CCCCC2)c(OC)c1` (configuration not stated), for which the IC50 in [1] is > 40 µM (not active).

Turning to `c1nc2cc(Cc3ccc4[nH]cnc4c3)ccc2[nH]1`, in assay [2], the CC50 is > 50 µM (active). The half-inhibitory concentration (IC50) in the assay “cells” was 44.5 µM (active).

One may read the EC50 as the concentration needed to bring the measured effect to its halfway point. In the case of `Cc1ccc2nsnc2c1NC(=O)c1ccc(-c2cc(Cl)ccc2Cl)o1`, the concentration for a half-maximal effect (EC50) in the assay on BJ [3] is 3.86 µM (inconclusive); on Galanin receptor type 2, > 55.7 µM (not active); in the assay with BJ [5], 14.4 µM (inconclusive); in assay [6], 5.89 µM (active); in the assay on BJ [8], 6.11 µM (inconclusive). The concentration for half-maximal inhibition (IC50) on SUMO-activating enzyme [4] was 18 µM (active); at SUMO-activating enzyme [7], 4.64 µM (active).

`O=S(=O)(c1cccc(NC(=S)N2CCN(c3cccc(Cl)c3)CC2)c1)C(F)F`: the CC50 with Vero was > 40 µM (active). In addition, the EC50 (in [9]; in the assay with HEK293; in [10]) was > 35.4 µM (not active) throughout.

`COc1ncccc1-c1nnn(-c2ccc(Cl)c(Cl)c2)n1`: the IC50 on Bcl-2-related protein A1 [11] and at Bcl-2-related protein A1 [12] was > 100 µM (not active) each time.

As for `Oc1ccc(Cl)cc1CNCc1ccc(Cl)nc1`, the EC50 at Vasopressin V1a receptor is reported as 17.5 µM (not active); on Oxytocin receptor it was 19.5 µM (not active).

For `Fc1nc(F)c(F)c(NCCCNc2c(F)c(F)nc(F)c2F)c1F`, the IC50 is 26 µM (inactive) on Fatty acid synthase [13], > 100 µM (active) in assay [15] and 7.19 µM (active) at Fatty acid synthase [16]. Moreover, the CC50 in assay [14] was 24 µM (active).

The values above are taken from ChEMBL document CHEMBL1201862, “PubChem BioAssay data set” (2004).
